The source of these data is ChEMBL document CHEMBL1158668, “Novel bioactivities of Curcuma longa constituents” (1998).

Each structure is given as a SMILES string. Active and inactive are the calls of the source. No cut-off for these calls is given here.

The target of test [1] is T1, DNA topoisomerase 2 (Saccharomyces cerevisiae S288c) (UniProt P06786).
T1 sequence (whole entry): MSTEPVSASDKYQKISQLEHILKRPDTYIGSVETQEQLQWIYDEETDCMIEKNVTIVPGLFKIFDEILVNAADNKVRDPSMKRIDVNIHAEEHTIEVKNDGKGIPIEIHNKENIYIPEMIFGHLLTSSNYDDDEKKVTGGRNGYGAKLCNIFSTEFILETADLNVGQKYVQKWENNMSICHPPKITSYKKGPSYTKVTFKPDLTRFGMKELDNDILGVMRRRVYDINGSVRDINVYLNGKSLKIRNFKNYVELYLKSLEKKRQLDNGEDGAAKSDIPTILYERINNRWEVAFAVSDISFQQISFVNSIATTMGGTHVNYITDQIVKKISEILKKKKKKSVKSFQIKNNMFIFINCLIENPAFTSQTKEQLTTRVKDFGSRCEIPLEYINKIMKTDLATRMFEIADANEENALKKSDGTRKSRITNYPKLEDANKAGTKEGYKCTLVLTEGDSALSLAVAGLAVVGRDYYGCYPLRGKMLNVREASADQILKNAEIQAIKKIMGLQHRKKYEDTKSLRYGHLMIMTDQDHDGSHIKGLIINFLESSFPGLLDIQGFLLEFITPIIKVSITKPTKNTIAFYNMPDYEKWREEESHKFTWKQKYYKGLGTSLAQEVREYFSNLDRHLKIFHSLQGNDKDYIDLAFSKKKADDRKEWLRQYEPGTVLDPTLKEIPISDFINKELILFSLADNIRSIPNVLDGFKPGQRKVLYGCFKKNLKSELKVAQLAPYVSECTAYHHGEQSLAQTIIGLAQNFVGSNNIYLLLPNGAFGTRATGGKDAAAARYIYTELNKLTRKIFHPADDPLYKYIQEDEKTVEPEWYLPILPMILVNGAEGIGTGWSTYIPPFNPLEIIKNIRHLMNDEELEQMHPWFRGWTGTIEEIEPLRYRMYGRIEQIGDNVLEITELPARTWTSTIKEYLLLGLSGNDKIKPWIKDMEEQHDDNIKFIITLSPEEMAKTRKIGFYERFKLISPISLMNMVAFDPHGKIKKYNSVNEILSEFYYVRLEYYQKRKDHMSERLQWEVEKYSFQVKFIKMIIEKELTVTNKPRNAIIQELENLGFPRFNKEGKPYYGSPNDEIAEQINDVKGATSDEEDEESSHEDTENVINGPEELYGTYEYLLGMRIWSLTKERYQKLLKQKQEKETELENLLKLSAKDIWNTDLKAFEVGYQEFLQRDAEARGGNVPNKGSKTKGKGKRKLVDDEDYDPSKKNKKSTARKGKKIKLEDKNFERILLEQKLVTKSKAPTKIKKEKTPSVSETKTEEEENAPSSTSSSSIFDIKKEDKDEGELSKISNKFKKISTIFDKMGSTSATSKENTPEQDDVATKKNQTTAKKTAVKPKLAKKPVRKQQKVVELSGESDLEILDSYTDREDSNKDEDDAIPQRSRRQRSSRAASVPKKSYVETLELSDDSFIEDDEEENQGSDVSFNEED
The test is described as follows: Inhibition of topoisomerase 2 in Saccharomyces cerevisiae JN394t2-5 assessed as inhibition of growth at 25 ug/mL after 72 hrs.

The target of test [2] is T1, DNA topoisomerase 2 (Saccharomyces cerevisiae S288c). The test is described as follows: Inhibition of topoisomerase 2 in Saccharomyces cerevisiae JN394 assessed as inhibition of growth at 25 ug/mL after 72 hrs.
The target of test [3] is T2, DNA topoisomerase 1 (Saccharomyces cerevisiae S288c) (UniProt P04786).
T2 sequence (whole entry): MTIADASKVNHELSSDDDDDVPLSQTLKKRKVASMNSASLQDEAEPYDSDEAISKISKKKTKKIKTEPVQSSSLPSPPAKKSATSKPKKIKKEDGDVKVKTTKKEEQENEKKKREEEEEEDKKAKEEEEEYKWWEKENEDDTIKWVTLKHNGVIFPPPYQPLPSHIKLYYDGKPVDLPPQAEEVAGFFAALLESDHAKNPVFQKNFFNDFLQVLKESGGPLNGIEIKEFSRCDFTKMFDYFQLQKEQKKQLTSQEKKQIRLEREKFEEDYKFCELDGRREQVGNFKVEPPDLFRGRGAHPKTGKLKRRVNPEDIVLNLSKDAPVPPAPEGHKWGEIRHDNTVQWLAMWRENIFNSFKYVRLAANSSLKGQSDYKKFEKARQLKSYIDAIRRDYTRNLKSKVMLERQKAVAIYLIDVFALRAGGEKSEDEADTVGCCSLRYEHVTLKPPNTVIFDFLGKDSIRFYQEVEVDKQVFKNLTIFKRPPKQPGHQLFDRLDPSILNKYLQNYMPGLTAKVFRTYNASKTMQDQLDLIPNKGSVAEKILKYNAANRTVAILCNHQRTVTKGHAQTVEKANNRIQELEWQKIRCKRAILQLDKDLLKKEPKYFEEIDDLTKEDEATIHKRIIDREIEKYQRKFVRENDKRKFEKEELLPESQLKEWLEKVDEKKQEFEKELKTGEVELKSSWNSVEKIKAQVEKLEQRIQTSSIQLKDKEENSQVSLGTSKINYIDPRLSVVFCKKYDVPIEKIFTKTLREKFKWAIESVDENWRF
Briefly: Inhibition of topoisomerase 1 in Saccharomyces cerevisiae JN394t-1 assessed as inhibition of growth at 50 ug/mL after 72 hrs.

The target of test [4] is T2, DNA topoisomerase 1 (Saccharomyces cerevisiae S288c). The test is described as follows: Inhibition of topoisomerase 1 in Saccharomyces cerevisiae JN394 assessed as inhibition of growth at 25 ug/mL after 72 hrs.
Test [5] concerns the target T1, DNA topoisomerase 2 (Saccharomyces cerevisiae S288c). Briefly: Inhibition of topoisomerase 2 in Saccharomyces cerevisiae JN394t-1 assessed as inhibition of growth at 25 ug/mL after 72 hrs.
The target of test [6] is T2, DNA topoisomerase 1 (Saccharomyces cerevisiae S288c). Briefly: Inhibition of topoisomerase 1 in Saccharomyces cerevisiae JN394t-1 assessed as inhibition of growth at 25 ug/mL after 72 hrs.
Test [7] shares this target. The test is described as follows: Inhibition of topoisomerase 1 in Saccharomyces cerevisiae JN394t2-5 assessed as inhibition of growth at 25 ug/mL after 72 hrs.
Test [8] has the same target. Briefly: Inhibition of topoisomerase 1 in Saccharomyces cerevisiae JN394 assessed as inhibition of growth at 50 ug/mL after 72 hrs.
Test [9] concerns the target T1, DNA topoisomerase 2 (Saccharomyces cerevisiae S288c). Briefly: Inhibition of topoisomerase 2 in Saccharomyces cerevisiae JN394t-1 assessed as inhibition of growth at 50 ug/mL after 72 hrs.
Test [10] addresses T2, DNA topoisomerase 1 (Saccharomyces cerevisiae S288c). Briefly: Inhibition of topoisomerase 1 in Saccharomyces cerevisiae JN394t2-5 assessed as inhibition of growth at 50 ug/mL after 72 hrs.
For test [11], the target named is T1, DNA topoisomerase 2 (Saccharomyces cerevisiae S288c). Briefly: Inhibition of topoisomerase 2 in Saccharomyces cerevisiae JN394 assessed as inhibition of growth at 50 ug/mL after 72 hrs.
For test [12] the target is unchanged. The test is described as follows: Inhibition of topoisomerase 2 in Saccharomyces cerevisiae JN394t2-5 assessed as inhibition of growth at 50 ug/mL after 72 hrs.
In the next test the test system is Candida albicans. Briefly: Antimicrobial activity against Candida albicans at 1 ug/mL. Format: functional, organism-based.
The next test has as its system Candida parapsilosis. The test is described as follows: Antimicrobial activity against Candida parapsilosis at 25 ug/mL. Format: functional, organism-based.
Test [13] relates to Aedes aegypti. Briefly: Mosquitocidal activity against Aedes aegypti fourth instar larvae assessed as mortality at 10 ug/mL after 48 hrs. Format: functional.
Another test has as its system Pichia kudriavzevii. Briefly: Antimicrobial activity against Candida krusei at 25 ug/mL. It counts as functional, organism-based.
In test [14] the test system is Aedes aegypti. The test is described as follows: Mosquitocidal activity against Aedes aegypti fourth instar larvae assessed as mortality at 50 ug/mL after 18 hrs. It counts as functional, organism-based.
For test [15], the system named is Aedes aegypti. Briefly: Mosquitocidal activity against Aedes aegypti fourth instar larvae. Format: functional.

Take `O=C(/C=C/c1ccc(O)cc1)CC(=O)/C=C/c1ccc(O)cc1`: the outcome in test [1], in test [2], in test [3], in test [4], in test [5] and in [6] was Active. For the same compound, the outcome in test [7], in test [8], in test [9], in test [10], in [11] and in test [12] was Active.

Regarding `C=C1CC[C@H]2C(C)(C)CCC[C@]2(C)[C@H]1C/C=C(\C=O)CC=O` [LABDADIENEDIAL], the outcome with Candida albicans, in the test on Candida parapsilosis and in the test with Pichia kudriavzevii was Active. The Activity with Aedes aegypti [13] came to 100%.

On to `COc1cc(/C=C/C(O)=C/C(=O)/C=C/c2ccc(O)cc2)ccc1O`, for which the outcome in test [3], in [8], in test [9], in [10], in test [11] and in test [12] was Active.

Regarding `CC(C)=CC(=O)CC(C)c1ccc(C)cc1` (centres undefined), the outcome with Aedes aegypti [14] was Active. Also, in the test with Aedes aegypti [15], the LD100 was 50 µg/mL.
